Source: patent US6919327B2, “Texaphyrin coordination compounds and uses thereof” (Pharmacyclics, Inc., priority 2000, dated 2005)

Test system: HepG2 cells
Assay: GdTex / LuTex cell association study in HepG2 cells
Format: cell-based
Conditions: 50 μM, 4 hours
Protocol: The absorption of GdTex and LuTex, using different sources of the respective texaphyrin, in HepG2 cells was determined, by comparing absorption for GdTex and LuTex in the cell line in medium alone, in medium containing ascorbic acid, and using GdTex and LuTex that had been premixed with ascorbate for a period of time before exposure to the cell line.
The HepG2 tumor cell line, a hepatocellular carcinoma, was obtained from the American Type Culture Collection (ATCC), Manassas, Va. (Catalog # HB-8065). The HepG2 cells were maintained in Eagle's Minimal Essential medium with Earl's BSS and 2 mM L-glutamine (EMEM) that is modified by ATCC to contain 1.0 mM sodium pyruvate, 0.1 mM nonessential amino acids, and 1.5 g/L sodium bicarbonate (ATCC, Cat. # 30-2003) and supplemented with 10% fetal bovine serum (FBS) FBS (Hyclone, Logan, Utah, Lot # AHF8559) and 100U penicillin/100 ug/ml streptomycin (Sigma, St. Louis, Mo.). Cells are fed 1 to 2 times weekly and passed at 3,000,000 cells per 75 cm tissue culture flask (Costar). Cells are passed using 0.25% trypsin, 0.02% EDTA solution (50/50 PBS/trypsin (Sigma)). Cells used were at the 96th passage at the time of use.
HepG2 Cells were plated at a density of 500,000 cells per dish in 100 mm tissue culture dishes containing 10 mL of RPMI media (Gibco, Rockville, Md.) supplemented with 10% fetal bovine serum (Lot# AJC9908), and 100 U/mL penicillin/100 ug/mL streptomycin (Lot # 50K2308, Sigma, St. Louis, Mo.). Cells were plated out 1 to 2 days prior to treating with motexafin gadolinium.
The day prior to treating the dishes with GdTex (9-19-00), an “aged” solution was prepared containing 50 μM GdTex, 100 μM ascorbate, and Catalase (at a concentration 1:1000 of the stock solution concentration provided by the vendor). This solution was incubated at 37° C. 5% CO2 for approximately 24 hours prior to addition to the appropriate test dishes.
On the day of treatment, test solutions were prepared as shown in the Table I below in pre-incubated medium. […]

[1] = freshly prepared solutions made in the presence of ascorbate (100 μM)

SMILES | association with HepG2 cells [1] | association with HepG2 cells (in the absence of ascorbate)
CC(=O)[O-].CC(=O)[O-].CCc1c(CC)c2cc3nc(cnc4cc(OCCOCCOCCOC)c(OCCOCCOCCOC)cc4ncc4nc(cc1[n-]2)C(CCCO)=C4C)C(C)=C3CCCO.O.[Gd+3] [GdTex, motexafin gadolinium] | comparable levels of association | smaller than corresponding LuTex cell association
CC(=O)[O-].CC(=O)[O-].CCc1c(CC)c2cc3nc(cnc4cc(OCCOCCOCCOC)c(OCCOCCOCCOC)cc4ncc4nc(cc1[n-]2)C(CCCO)=C4C)C(C)=C3CCCO.O.[Lu+3] [LuTex, motexafin lutetium] | comparable levels of association | –
